Laboratory results reported in patent publication EP2149554A1, “Indolyamides as modulators for an EP2 receptor” (Bayer Schering Pharma Aktiengesellschaft, priority 2008, dated 2010).

Legend:
[1] = target: T1, EP2-Subtyp des humanen PGE2-Rezeptors (Homo sapiens, UniProt P43116); test: cAMP antagonism test (HTRF cAMP detection, in presence of PGE2); format: cell-based; details: cAMP Antagonismustest; PGE2 as agonist; read-out: Antagonismus [IC50
T1 construct: host or cells: cells in a culture plate
From the text: 1. Nachweis des Antagonismus des humanen Prostaglandin E2 (Subtyp EP2) Rezeptorsignals
(§1) Die Bindung von PGE2 an den EP2-Subtyp des humanen PGE2-Rezeptors induziert die Aktivierung membranständiger Adenylatzyklasen und führt zur Bildung von cAMP. In Gegenwart des Phosphodiesteraseinhibitors IBMX wird das durch diese Stimulation akkumulierte und mittels Zell-Lyse freigesetzte cAMP in einem kompetitiven Nachweisverfahren eingesetzt. In diesem Test konkurriert das cAMP im Lysat mit cAMP-XL665 um die Bindung eines Eu-Kryptat markierten Anti-cAMP Antikörpers.
(§2) Dabei entsteht in Abwesenheit von zellulärem cAMP ein maximales Signal, welches auf der Kopplung dieses Antikörpers an das cAMP-XL665 Molekül beruht. Dadurch entsteht nach Anregung bei 337 nm ein auf FRET (fluorescence resonance energy transfer) basierendes, langanhaltendes Emissionssignal bei 665 nm (und bei 620 nm). Beide Signale werden in einem geeigneten Messgerät zeitlich versetzt, d.h. nach Abklingen der Hintergrundsfluoreszenz gemessen. Jegliche Erhöhung des durch Prostglandin-E2-Gabe bedingten niedrigen FRET-Signals (gemessen als Well-Ratio-Veränderung = Emission665nm/Emission620nm * 10000) zeigt die Wirkung von Antagonisten.
1.2.1. Test auf Antagonismus (Angaben pro Vertiefung einer 384-Loch-Platte):
Die in einer Testplatte und 30 % DMSO vorgelegten Substanzlösungen (0.75 µl) wurden in 16 µl einer KRSB+IBMX-Stimulationslösung gelöst (1 X Krebs-Ringer Bicarbonate Buffer; Sigma-Aldrich # K-4002; inklusive 750 µM 3-Isobutyl-1-methylxanthine Sigma-Aldrich # I-7018), anschließend wurden 15 µl davon in eine medienfreie Zellkulturplatte überführt, die kurz zuvor mit KRSB gewaschen worden war.
Nach einer 30-minütigen Vorinkubation bei Raumtemperatur (RT) wurden 5 µl einer 4xPGE2 Lösung (11 nM) zugegeben und in Gegenwart des Agonisten für weitere 60 min bei RT inkubiert (Volumen: ∼ 20 µl), bevor die Reaktion anschließend durch Zugabe von 5 µl Lysispuffer gestoppt und für weitere 20 min bei RT inkubiert wird (Volumen: ∼ 25 µl). Das Zell-Lysat wurde anschließend in eine Messplatte überführt und entsprechend den Herstellerangaben (cyclic AMP kit Cisbio International # 62AMPPEC) gemessen.

Kumulus-Eizell Komplexe = test: cumulus expansion test in vitro; format: cell-based, Mäusen (Stamm : CD1 (ICR)); details: competing with PGE2
From the text: Im prä-ovulatorischen antralen Follikel ist die Eizelle von Kumulus Zellen umgeben, die einen dichten Zellkranz um die Eizelle bilden. Nach dem LH-Peak (Lutenisierendes Hormon) wird eine Reihe von Prozessen aktiviert, die eine starke morphologische Veränderung dieses Zellkranzes aus Kumulus Zellen zur Folge hat. Hierbei bilden die Kumulus Zellen eine extrazelluläre Matrix, die zur sogenannten Kumulus Expansion führt (Vanderhyden et al. Dev Biol. 1990 Aug;140(2):307-317). Diese Kumulus Expansion ist ein wichtiger Bestandteil des ovulatorischen Prozesses und der nachfolgenden Möglichkeit zur Fertilisation. Bei der Kumulus Expansion sind Prostaglandine und hier das Prostaglandin E2, dessen Synthese durch den LH-Peak induziert wird, von entscheidender Bedeutung. Prostanoid EP2 Knock-out Mäuse (Hizaki et al. Proc Natl Acad Sci U S A. 1999 Aug 31 ;96(18):10501-6.) zeigen eine deutlich verminderte Kumulus Expansion und starke Subfertilität, was die Bedeutung des Prostanoid EP2-Rezeptors für diesen Prozess demonstriert.
2.2. Kumulus Expansions Test in vitro
In immaturen weiblichen Mäusen (Stamm : CD1 (ICR) von Charles River) wurde in einem Alter von 14 - 18 Tagen die Follikulogenese durch eine einmalige Gabe (intraperitoneal) von 10 I.E. PMSG (Pregnant Mare Serum Gonadotropine; Sigma G-4877, Lot 68H0909) induziert. […]

[2] = target: T1, EP2-Subtyp des humanen PGE2-Rezeptors; test: cellular agonism test (HTRF cAMP detection, without PGE2); format: cell-based
From the text: as §1, §2
1.2.2. Test auf Agonismus (Angaben pro Vertiefung einer 384-Loch-Platte): […]

T1 sequence (P43116 whole entry): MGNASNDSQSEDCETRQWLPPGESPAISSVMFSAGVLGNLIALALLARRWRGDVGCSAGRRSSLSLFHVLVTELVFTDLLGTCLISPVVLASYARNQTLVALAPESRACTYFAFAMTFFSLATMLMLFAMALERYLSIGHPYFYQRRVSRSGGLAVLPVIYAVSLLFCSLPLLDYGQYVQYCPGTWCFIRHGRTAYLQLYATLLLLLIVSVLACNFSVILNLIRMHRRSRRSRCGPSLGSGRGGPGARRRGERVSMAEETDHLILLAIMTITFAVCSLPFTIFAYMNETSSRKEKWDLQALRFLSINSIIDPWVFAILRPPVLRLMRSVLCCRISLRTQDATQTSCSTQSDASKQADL

SMILES | IC50 [1] [nM] | Unterdrückung der Kumulus Expansion (Kumulus-Eizell Komplexe; 5 µM) | Wirkung im zellulären Agonismustest [2] | Unterdrückung der Kumulus Expansion (Kumulus-Eizell Komplexe; 100 - 200 µM)
Cc1[nH]c2c(F)ccc(C)c2c1CCNC(=O)c1cc2ccc(C(=O)NCC(C)(C)CO)cc2[nH]1 [Beispiel 8, 1H-Indol-2,6-dicarbonsäure 2-{[2-(7-fluor-2,4-dimethyl-1H-indol-3-yl)-ethyl]-amid} 6-[(3-hydroxy-2,2-dimethyl-propyl)-amid]] | 122 |  |  | 
Cc1[nH]c2c(F)ccc(C)c2c1CCNC(=O)c1cc2ccc(C(=O)NCC(N)=O)cc2[nH]1 [Beispiel 6, 1H-Indol-2,6-dicarbonsäure 6-carbamoylmethyl-amid 2-{[2-(7-fluor-2,4-dimethyl-1H-indol-3-yl)-ethyl]-amid}] | 22 | ca. 67% | keine Inhibition | 
Cc1[nH]c2c(F)ccc(C)c2c1CCNC(=O)c1cc2cc(C(=O)NCCC(N)=O)ccc2[nH]1 [Beispiel 5, 1H-Indol-2,5-dicarbonsäure 5-[(2-carbamoyl-ethyl)-amid] 2-{[2-(7-fluor-2,4-dimethyl-1H-indol-3-yl)-ethyl]-amid}] | 297 |  |  | 
CC(C)Oc1ccc2c(=O)c3cc(C(=O)O)ccc3oc2c1 [AH 6809, reference compound] |  |  |  | ca. 30%
Cc1[nH]c2c(F)ccc(C)c2c1CCNC(=O)c1cc2ccc(C(=O)NCCC(N)=O)cc2[nH]1 [Beispiel 10, 1H-Indol-2,6-dicarbonsäure 6-[(2-carbamoyl-ethyl)-amid] 2-{[2-(7-fluor-2,4-dimethyl-1H-indol-3-yl)-ethyl]-amid}] | 46 |  |  | 
